From patent US20250136581A1, “SUBSTITUTED TRIAZOLE DERIVATIVE, PREPARATION METHOD THEREFOR, PHARMACEUTICAL COMPOSITION THEREOF, AND USE THEREOF” (SHANGHAI SIMR BIOTECHNOLOGY CO., LTD., priority 2021, published 2025)

target: human α5β3γ2 receptors (α5-GABAA receptor) (Homo sapiens (Human), UniProt P18507+P31644); test: 3H-flunitrazepam competition binding, human α5β3γ2 GABAA receptor; settings: HEK293 cell membranes, 1 nM 3H-flunitrazepam; read-out: α5-GABAAR Ki
Procedure: The affinity of the compound to each subtype of GABAA receptor was determined by competing for the binding of ^3H-flunitrazepam to HEK293 cells stably expressing human α1β3γ2, α2β3γ2, α3β3γ2, and α5β3γ2 receptors.
The cells were suspended in 50 mM Tris-HCl buffer (pH=7.4), homogenized 10 times on ice with a homogenizer for 20 seconds, and centrifuged at 1000 g for 10 minutes at 4° C. The supernatant was collected, and the above steps were repeated. The supernatant was centrifuged at 4° C. (33800 g; Thermo, rotor: A27-8×50) for 60 minutes, and the precipitate was resuspended in Tris buffer (50 mM Tris-HCl, 10 mM MgCl2, 0.5 mM EDTA, 10% glycerol). Protein was measured (BCA method, Pierce), and 1 mL aliquots were prepared and stored at −80° C.
The radioligand competition binding assay was performed in a 200 μL system (96-well plate) containing 100 μL of cell membrane. The concentration of ^3H-flunitrazepam was 1 nM and the concentration of the test compound was in the range of […]. Flumazenil was used as a control. 1 μL of 2 mM flumazenil (final concentration […]) was added to the low signal control well (Low control, LC), and 1 μL of DMSO was added to the high signal control well (High control, HC). The final concentration of target membrane protein was […]. All test compound sample storage solutions were 10 mM. The working concentration of the samples was to dilute all the samples to 0.2 mM with DMSO, followed by 4-fold serial gradient dilutions for a total of 8 concentration gradients. The 96-well plate was sealed with a sealing film, and then incubated on a shaker at room temperature for 1 hour. At the same time, the GF/C filter plate was soaked in soaking buffer (0.3% PEI, stored at 4° C.) for at least 0.5 hours. After the binding incubation was completed, the cells were collected onto a GF/C filter plate using a cell harvester. The plate was washed four times with washing buffer (50 mM Tris-HCl, pH 7.4, stored at 4° C.). After drying in a 50° C. oven for 1 hour, the bottom of the dried GF/C filter plate was sealed. The residual radioactivity on the filter membrane was detected using liquid scintillation counting. 50 μL of scintillation fluid was added to each well, and the plate was sealed. The readings were taken using a Microbeta2. The inhibitory activity of the test sample on the binding of ^3H-flunitrazepam to GABAA receptor membrane proteins was calculated, and the IC50 of each test sample was calculated by dose-effect curve fitting (GraphPad Prism 5 software), and the Ki of the sample was calculated from the IC50, thus evaluating the binding ability of the sample to the various subtypes of GABAA receptors.

Ki [nM]	SMILES
2.14	Cc1nnn(-c2ccc(C(F)F)cc2)c1COc1ccc(N2CC(C(=O)Nc3ccnn3C)C2)nn1 [Example 102, 1-(6-((1-(4-(Difluoromethyl)phenyl)-4-methyl-1H-1,2,3-triazol-5-yl)methoxy)pyridazin-3-yl)-N-(1-methyl-1H-pyrazol-5-yl)azetidine-3-carboxamide]
1.45	Cc1nnn(-c2ccc(C(F)F)cc2)c1COc1ccc(N2CCN3c4cccnc4NC(=O)[C@@H]3C2)nn1 [Example 193, (S)-3-(6-((1-(4-(difluoromethyl)phenyl)-4-methyl-1H-1,2,3-triazol-5-yl)methoxy)pyridazin-3-yl)-2,3,4,4a-tetrahydro-1H-pyrazino[1,2-a]pyrido[2,3-e]pyrazin-5(6H)-one]
14.4	Cc1nnn(-c2ccc(C(F)F)cc2)c1COc1ccc(N2CCNC(C)(C)C2=O)nn1 [Example 10, 1-(6-((1-(4-(Difluoromethyl)phenyl)-4-methyl-1H-1,2,3-triazol-5-yl)methoxy)pyridazin-3-yl)-3,3-dimethylpiperazin-2-one]
2.48	CNC(=O)[C@@H]1CN(c2ccc(OCc3c(C)nnn3-c3ccc(C(F)F)cc3)nn2)CCO1 [Example 38, (S)-4-(6-((1-(4-(Difluoromethyl)phenyl)-4-methyl-1H-1,2,3-triazol-5-yl)methoxy)pyridazin-3-yl)-N-methylmorpholine-2-carboxamide]
0.96	O=C1CN(c2ccc(OCc3c(C(F)F)nnn3-c3ccc(C(F)F)cc3)nn2)CCN1 [Example 185, 4-(6-((4-(Difluoromethyl)-1-(4-(difluoromethyl)phenyl)-1H-1,2,3-triazol-5-yl)methoxy)pyridazin-3-yl)piperazin-2-one]
23.6	Cc1nnn(-c2ccc(C(F)F)nc2)c1COc1ccc(N2CCNC(=O)C2)nn1 [Example 74, 4-(6-((1-(6-(Difluoromethyl)pyridin-3-yl)-4-methyl-1H-1,2,3-triazol-5-yl)methoxy)pyridazin-3-yl)piperazin-2-one]
7.39	Cc1nnn(-c2ccc(C(F)F)cc2)c1COc1ccc(N2CCCN(S(C)(=O)=O)CC2)nn1 [Example 106, 1-(6-((1-(4-(Difluoromethyl)phenyl)-4-methyl-1H-1,2,3-triazol-5-yl)methoxy)pyridazin-3-yl)-4-(methylsulfonyl)-1,4-diazepane]
115	CCNC(=O)[C@@H]1CCCN1c1ccc(OCc2c(C)nnn2-c2ccc(C(F)F)cc2)nn1 [Example 42, (S)-1-(6-((1-(4-(Difluoromethyl)phenyl)-4-methyl-1H-1,2,3-triazol-5-yl)methoxy)pyridazin-3-yl)-N-ethylpyrrolidine-2-carboxamide]
1.37	O=C1CN(c2ccc(OCc3c(Cl)nnn3-c3ccc(C(F)F)cc3)nn2)C[C@H]2COCCN12 [Example 183, (S)-8-(6-((4-Chloro-1-(4-(difluoromethyl)phenyl)-1H-1,2,3-triazol-5-yl)methoxy)pyridazin-3-yl)hexahydropyrazino[2,1-c][1,4]oxazin-6(1H)-one]
8.86	Cc1nnn(-c2ccc(C(F)F)cc2)c1COc1ccc(N2CCNCC2=O)nn1 [Example 71, 1-(6-((1-(4-(Difluoromethyl)phenyl)-4-methyl-1H-1,2,3-triazol-5-yl)methoxy)pyridazin-3-yl)piperazin-one]
1.41	COCCCN1CCN(c2ccc(OCc3c(C)nnn3-c3ccc(C(F)F)cc3)nn2)CC1=O [Example 140, 4-(6-((1-(4-(Difluoromethyl)phenyl)-4-methyl-1H-1,2,3-triazol-5-yl)methoxy)pyridazin-3-yl)-1-(3-methoxypropyl)piperazin-2-one]
1.25	CCNC(=O)C12CC(CN1c1ccc(OCc3c(C)nnn3-c3ccc(C(F)F)cc3)nn1)C2 [Example 115, 2-(6-((1-(4-(Difluoromethyl)phenyl)-4-methyl-1H-1,2,3-triazol-5-yl)methoxy)pyridazin-3-yl)-N-ethyl-2-azabicyclo[2.1.1]hexane-1-carboxamide]
